Laboratory results taken from patent US8198294B2, “Treatment of dyskinesia” (Motac Neuroscience Limited, priority 2001, dated 2012).

Tested on: MPTP-lesioned marmoset
Assay: L-DOPA-induced dyskinesia in MPTP-treated marmoset model of Parkinson's disease
Assay type: in vivo, common marmosets (Callithrix jacchus)
Conditions: for Median total dyskinesia scores compared to animals treated with L-DOPA and vehicle / Animals in which dyskinesia was completely abolished: antagonist 10 mg/kg i.p. with L-DOPA 8 mg/kg p.o.; for Median total dyskinesia scores compared to animals treated with L-DOPA and vehicle: cumulative scores; for Animals in which dyskinesia was completely abolished: n=6
Description: The effect of the selective mu opioid receptor antagonist Cyprodime on dyskinesia was assessed in a 1-methyl-4-phenyl-1,2,3,6-tetrahydropyridine (MPTP)-treated marmoset model of Parkinson's disease.
Six adult common marmosets (Callithrix jacchus) were obtained from a closed colony bred at Manchester University, BSU. This study was conducted in the U.K. in accordance with the requirements of The Animals (Scientific Procedures) Act, 1986. The animals were kept in controlled housing conditions, with constant temperature (25° C.), relative humidity (50%) and 12 h light/dark cycles (08.00-20.00 light on). The animals had free access to food (Masuri primate diet-E, Scientific Dietary Services, UK), fresh fruit supplements and water. Marmosets were rendered parkinsonian by treatment with 1-methyl-4-phenyl-1,2,3,6-tetrahydropyridine (MPTP) hydrochloride (Sigma, 2 mg/kg s.c. for 5 consecutive days). […] The animals were allowed to recover for a period of 14 weeks until behavioural assessment was commenced.
Dyskinesia was established in these animals by twice daily treatment with L-DOPA (10 mg/kg p.o. as Madopar Dispersible®) for 3 weeks.
Opioid antagonists, or vehicle, were administered with L-DOPA to assess the effects of adjunctive treatment on L-DOPA-induced dyskinesia and the anti-parkinsonian efficacy of L-DOPA. All animals received all treatments. Treatments in any one animal were separated by at least three days. Naltrexone (non-selective antagonist) was administered at a dose of 10 mg/kg (i.p), cyprodime (mu selective antagonist) was administered at a dose of 10 mg/kg (i.p.), naltrindole (delta selective antagonist) was administered at a dose of 10 mg/kg (i.p.), nor-binaltorphimine (nor-BNI, kappa selective antagonist) was administered at a dose of 20 mg/kg (i.p.). Drugs or vehicle were administered with L-DOPA treatment (8 mg/kg p.o.). Behaviour was assessed for 3 hours post drug administration.
A battery of behavioural assessments was performed to assess the intensity, range and speed of movements. In addition, postural abnormalities and dyskinesia were assessed. • 1) Parkinsonian disability—non-parametric measures based on the following scales • i) Motor activity (repertoire) score: 0=no movement at all, 1=movement of head or trunk, 2=movement of limbs but no locomotion, on the floor of the cage, 3=on wall of cage/perch, movement of head or trunk, 4=on wall of cage/movement of limbs but no locomotion, 5=walking around/eating on floor of cage, 6=hopping on floor of cage, 7=climbing onto wall of cage or perch, 8=climbing up and down the walls of the cage or along perch, 9=running, jumping, climbing between cage walls/perch/roof, uses limbs through a wide range of motion and activity. • ii) Bradykinesia score: 0=normal speed of movement, 1=moderate slowing of movement, difficulty initiating and maintaining movement 2=akinetic, unable to move (maximum score in 30 minutes=12). • iii) Posture score: 0=normal, upright, holds head up, 1=impaired, crouched, face down. (maximum score in 30 minutes=6). • 2) Dyskinesia • 0=Absent • 1=Mild, fleeting • 2=Moderate, not interfering with normal activity • 3=Marked, at times interfering with normal activity • 4=Severe, continuous, replacing normal activity
Parameters 1 and 2 were assessed every 30 minutes throughout a six hour period by post-hoc analysis of videotape recordings. Assessment was made by an observer blinded to the treatment administered.
Non-parametric measures of mobility, bradykinesia, posture and dyskinesia were cumulated and compared between treatments with a Friedman's test with post hoc Dunn's test where appropriate.

[1] = L-DOPA 8 mg/kg p.o., MPTP-treated marmosets

SMILES	Median total dyskinesia scores compared to animals treated with L-DOPA and vehicle (n=6, FIG. 1)	Animals in which dyskinesia was completely abolished	other results
O=C1CC[C@@]2(O)[C@H]3Cc4ccc(O)c5c4[C@@]2(CCN3CC2CC2)[C@H]1O5 [naltrexone]	reduced	33%	
N[C@@H](Cc1ccc(O)c(O)c1)C(=O)O [L-DOPA]			Parkinsonian symptoms after L-DOPA treatment [1]: reversed; Time to commencement of dyskinesia after L-DOPA administration [1]: ≤ 5 min
Oc1ccc2c3c1O[C@H]1c4[nH]c5c(c4C[C@@]4(O)[C@@H](C2)N(CC2CC2)CC[C@]314)C[C@@]1(O)[C@H]2Cc3ccc(O)c4c3[C@@]1(CCN2CC1CC1)[C@H]5O4 [nor-BNI, nor-binaltorphimine]			Median total dyskinesia scores (effect on L-DOPA-induced dyskinesia) (antagonist 20 mg/kg i.p. with L-DOPA 8 mg/kg p.o., n=6, FIG. 1): no effect
COc1cccc2c1[C@]13CCN(CC4CC4)[C@H](C2)[C@]1(OC)CCC(=O)C3 [cyprodime]	markedly reduced	100%	Dyskinesia exhibited by each treated animal (10 mg/kg i.p. with L-DOPA 8 mg/kg p.o., individual animals): minimal or no dyskinesia
Oc1ccc2c3c1O[C@H]1c4[nH]c5ccccc5c4C[C@@]4(O)[C@@H](C2)N(CC2CC2)CC[C@]314 [naltrindole]	reduced	50%	
